Legend:
[1] = molecular target: T1, récepteurs β₁ adrénergiques (Cavia porcellus, UniProt H0W3H1); test: Blockade of β1 adrenergic receptors in vitro: isoprenaline concentration-effect curves on atrial rate of isolated right atria (Schild analysis); assay type: cell-based, cobaye; settings: for déplacement des courbes concentration-effet à l'isoprénaline: R(+) at 0,3, 1, 3 µM, S(-) at 0,1, 0,3, 1 µM, 30 min before the second curve; for Kb: Schild method, antagonism of isoprenaline on atrial rate, isolated guinea pig right atrium, 32°C, confidence interval in brackets, read-out: pA₂ (converted)
T1 construct: L'oreillette droite est séparée du coeur; from tissue; host or cells: isolated right atrium of male guinea pigs
T1 sequence (H0W3H1 1-470): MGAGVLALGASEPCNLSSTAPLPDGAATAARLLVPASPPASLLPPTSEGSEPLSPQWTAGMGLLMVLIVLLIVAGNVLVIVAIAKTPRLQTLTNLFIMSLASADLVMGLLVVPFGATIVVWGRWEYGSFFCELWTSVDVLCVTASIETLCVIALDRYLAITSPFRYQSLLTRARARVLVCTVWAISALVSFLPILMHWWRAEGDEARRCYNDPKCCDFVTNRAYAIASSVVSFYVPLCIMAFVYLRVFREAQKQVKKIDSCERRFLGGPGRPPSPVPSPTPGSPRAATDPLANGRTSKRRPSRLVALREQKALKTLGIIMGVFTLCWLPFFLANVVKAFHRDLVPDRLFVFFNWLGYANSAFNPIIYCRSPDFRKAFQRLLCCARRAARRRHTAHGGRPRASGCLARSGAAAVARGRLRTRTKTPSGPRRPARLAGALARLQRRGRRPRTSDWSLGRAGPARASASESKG
Excerpt: 1. Efficacité des isomères (S)(-) et (R)(+) du cicloprolol en tant que bloquants des récepteurs β₁ adrénergiques dans des conditions in vitro.
Préparation des oreillettes droites.
Des cobayes mâles (race tricolore : élevage LESSIEUX) pesant 200-250 g sont sacrifiés par dislocation cervicale. Les coeurs sont rapidement retirés de la cage thoracique et placés dans une solution de Krebs dans laquelle barbote un mélange de 95 % de O₂ et 5 % de CO₂. La composition de cette solution en mM est : NaCl 118; KCl 4,7; CaCl₂ 2,6; KH₂PO₄ 1,2; MgCl₂ 1,2; NaHCO₃ 25; glucose 11,7; acide ascorbique 1,0. L'oreillette droite est séparée du coeur. Sa base est attachée à un crochet monté sur un support et son apex à un autre petit crochet auquel un fil est accroché. La préparation est transférée dans un bain à organe contenant 20 ml de solution de Krebs oxygénée à 32°C et le fil est connecté à un transducteur de force (Grass, modèle : FTO3C). Une tension de repos de 0,5 g est appliquée à l'oreillette et les signaux de force contractile servent à déclencher un cardiotachomètre pour mesurer le rythme atrial. La force contractile et le rythme atrial sont enregistrés sur un polygraphe.
Après une période de stabilisation de 50 minutes, le tissu est soumis à une concentration de 0,01 µM d'isoprénaline puis est lavé à plusieurs reprises pendant 20 minutes. Immédiatement après, la courbe concentration-effet complète est déterminée en additionnant au bain des concentrations de plus en plus fortes d'isoprénaline (demi-intervalles de l'échelle logarithmique) jusqu'à ce que le rythme atrial ne puisse plus augmenter davantage. Chaque concentration successive d'isoprénaline est ajoutée quand la réponse à la concentration précédente atteint un état stable apparent. A la fin de cette courbe concentration-effet, la préparation est lavée toutes les 10 minutes, pendant 30 minutes, pour lui laisser retrouver son rythme de battement minimal. Puis, une deuxième courbe de réponse aux concentrations est effectuée 30 minutes après avoir soumis la préparation aux différentes concentrations de R(+)-cicloprolol (0,3; 1; et 3 µM) ou de S(-)-cicloprolol (0,1; 0,3 et 1 µM). Les modifications maximales du rythme atrial engendrées par chaque concentration d'isoprénaline sont exprimées en pourcentage par rapport à la réponse émise lors d'une concentration supramaximale d'isoprénaline. Ces valeurs sont utilisées pour construire la courbe concentration-effet dans un repère semi-logarithmique. Il faut noter que si le rythme initial au début de la seconde courbe concentration-effet diffère de celle de la 1ère courbe, la réponse maximale utilisée pour calculer les pourcentages est déterminée par la différence entre le rythme initial de l'oreillette avant l'initiation de la seconde courbe concentration-effet et le rythme atteint par l'oreillette après l'addition de la plus grande concentration d'isoprénaline lors de la première courbe de réponse.
Le logarithme changé de signe de la concentration d'isoprénaline produisant 50 % de l'effet maximal (pD₂) est calculé pour chaque courbe de réponse avant et après chaque concentration de S(-) ou de R(+)-cicloprolol. Les valeurs logarithmiques (concentration ratio-1) sont portées sur l'ordonnée en fonction du logarithme négatif de la concentration d'antagoniste. (Arunlakshana et Schild, Br. J. Pharmacol. 14, 48-54, 1959). […]

Rat amyélé = test: Partial β-agonist activity in vivo: heart rate increase in the pithed rat after cumulative i.v. doses; settings: for ED (50 beats per minute increase): iv, dose giving a heart rate increase of 50 beats per minute, pithed rat, i.v., read-out: DE₅₀; for augmentation maximale de fréquence cardiaque (effet agoniste partiel): pithed anaesthetised rat, cumulative i.v. doses
Method: 2. Propriétés β-agonistes partielles des isomères (S)(-) et (R)(+) du cicloprolol.
L'activité β-agoniste partielle des deux énantiomères du cicloprolol, a été étudiée in vivo chez le Rat amyélé. Des rats (Spraque-Dawley; Charles River, France) mâles de 250 g environ sont anesthésiés au pentobarbital sodique (55 mg/kg i.p.), amyélés puis placés sous respiration artificielle. La pression artérielle est captée par voie sanglante au niveau de la carotide et l'onde pulsatile alimente un tachographe gui permet de mesurer la fréquence cardiaque. Les composés sont injectés par voie intraveineuse au niveau de la veine fémorale. Ces rats amyélés présentent une fréquence cardiaque réduite d'environ 30 % par rapport à celle de rats intacts anesthésiés. L'activité agoniste partielle des énantiomères est déterminée par l'injection de doses cumulatives des énantiomères. On détermine la dose permettant une augmentation de la fréquence cardiaque de 50 battements par minute (DE₅₀) ainsi que le maximum de l'effet.

[2] = Cardiac stimulant activity in man; assay type: in vivo, homme; settings: no method or data given

| SMILES | déplacement des courbes concentration-effet à l'isoprénaline [1] | Kb [1] [nM] | ED (50 beats per minute increase) (Rat amyélé) [µg/kg] | augmentation maximale de fréquence cardiaque (effet agoniste partiel) (Rat amyélé) [bat/min] | fois plus puissant que le (R)(+)-cicloprolol, comme antagoniste des récepteurs β₁ adrénergiques ([1]; antilog(7,44 - 6,62), ratio of the pA₂ values) | activité stimulante cardiaque [2] |
| --- | --- | --- | --- | --- | --- | --- |
| CC(C)NC[C@@H](O)COc1ccc(OCCOCC2CC2)cc1 [(R)(+)-cicloprolol, (R)-(+)-1-[4-[2(cyclopropylméthoxy)éthoxy]phénoxy]-3-[(1-méthyléthyl)amino]propan-2-ol] | déplacent vers la droite les courbes concentration-effet à l'isoprénaline de façon parallèle et sans changer la réponse maximale | 240 | 122 ± 2 | 113 ± 5 |  |  |
| CC(C)NC[C@H](O)COc1ccc(OCCOCC2CC2)cc1 [(S)(-)-cicloprolol, (S)-(-)-1-[4-[2-(cyclopropylméthoxy)éthoxy]phénoxy]-3-[(1-méthyléthyl)amino]propan-2-ol] | déplacent vers la droite les courbes concentration-effet à l'isoprénaline de façon parallèle et sans changer la réponse maximale | 36.3 | 4.6 ± 0.1 | 107 ± 3 | 6,6 fois |  |
| CC(C)NCC(O)COc1ccc(OCCOCC2CC2)cc1 (stereo not drawn) [cicloprolol, 1-[4-[2-(cyclopropylméthoxy)éthoxy]phénoxy]-3-[(1-méthyléthyl)amino]propan-2-ol] |  |  |  |  |  | a été confirmée chez l'homme |
| CC(C)NCC(O)c1ccc(O)c(O)c1 (stereo not drawn) [isoprénaline, reference compound] |  |  | 0.02 | ~140 |  |  |
